Measurements reported in patent US9375426B2, “Method of screening anti-plasmodial activity of acriflavin and acriflavin as an anti-malarial agent” (priority 2012, dated 2016).

Assays:
[1] = system: malaria parasite in vitro; assay: Anti-malarial property of Acriflavin vs Proflavin in vitro (parasitemia at end of first life cycle); assay type: cell-based, Plasmodium falciparum; conditions: 100 nM and 250 nM drug concentrations
Experimental: FIG. 1: Effect of Acriflavin on in vitro growth of 3D7 and W2 strains. Synchronized chloroquine susceptible 3D7 (A) and Chloroquine resistant W2 (B) parasites at ring stage (˜16-20 hrs) were treated with 20 nM to 100 nM of Acriflavin and parasitemia were counted at different time points (post-treatment) as indicated. (C) In each case, parasitemia were determined at the end of the first life cycle and plotted against different concentrations of Acriflavin/Proflavin. Each point/column represents the parasitemia of the mean of triplicates with standard deviations. […] Parasite growth inhibition was assessed by microscopy of giemsa stained smear at different time points as indicated.
Acriflavin is a mixture of 3,6-diamino-10-methylacridinium chloride (Trypflavin) and 3,6-diaminoacridine (Proflavin). […] After the Acriflavin treatment, the parasitemia was calculated in each case. Further, the anti-malarial property of Acriflavin vs Proflavin was also evaluated.
To determine the antimalarial activity of Acriflavin in vitro, synchronised ring stage, Chloroquine sensitive (3D7) and Chloroquine resistant (W2) P. falciparum (˜2.5% parasitemia) parasites were incubated with a range of Acriflavin concentrations (0-100 nM). After 40 hours of the Acriflavin treatment, the parasitemia was calculated in each case. […]

Plasmodium berghei = system: Plasmodium berghei
Experimental: FIG. 2: In vivo measurement of parasite killing ability of Acriflavin.
This is further described hereinafter as Example 3.
The mice were divided into three groups (each group had 4 mice). For four consecutive days, group I was injected subcutaneously with 5 mg Acriflavin/kg body weight; group II received 5 mg Chloroquine/kg body weight and the group III received no drug and served as control in this experiment. Every alternate day the parasitemia from the tail blood was calculated. […] The mouse groups were kept under observation for 3 weeks after the drug treatment.

Nc1ccc2cc3ccc(N)cc3nc2c1 [Proflavin, 3,6-diaminoacridine]
anti-malarial property against malaria parasite in vitro [1]: ineffective

CCN(CC)CCCC(C)Nc1ccnc2cc(Cl)ccc12 (stereo not shown) [Chloroquine]
parasitemia at the end of day 6 (Plasmodium berghei; 5 mg/kg body weight subcutaneously, four consecutive days, tail blood, untreated control 16%): 0.33% | survivability rate (Plasmodium berghei; 5 mg/kg s.c. for four days, 3 weeks observation after treatment, untreated control 25%): 75%

mixture of 3,6-diamino-10-methylacridinium chloride (Trypflavin) and 3,6-diaminoacridine (Proflavin) [Acriflavin]
drug-related effects on body weight or general condition of animals (Plasmodium berghei; mouse, in vivo): No drug-related effects
